Data reported in paper PMC9814779, “A triple farnesoid X receptor and peroxisome proliferator-activated receptor α/δ activator reverses hepatic fibrosis in diet-induced NASH in mice” (Communications Chemistry, 2020).

Tested on: FXR- and PPAR-regulated genes in mouse liver
Test: Pilot animal experiment: hepatic FXR- and PPAR-regulated mRNA expression
Assay type: in vivo, mice
Conditions: single oral dose 10 mg/kg
Method: Nine male RjOrl:Swiss (CD-1) mice (38–41 g body weight, purchased from Janvier Labs, France) were used for the pilot in vivo study. […] Food and water were available ad libitum. The in-life phase was performed by the contract research organization Pharmacelsus (Saarbrücken, Germany). All experimental procedures were approved by and conducted in accordance with the regulations of the local Animal Welfare authorities (Landesamt für Gesundheit und Verbraucherschutz, Abteilung Lebensmittel- und Veterinärwesen, Saarbrücken). Six animals received a single oral dose of 10 mg/kg body weight of 41, and three animals received the vehicle. Water containing 1% hydroxypropyl methylcellulose (HPMC)/Tween 80 (99:1) served as vehicle.
Twelve or 18 hours after test compound application, mice were anesthetized under isoflurane and then sacrificed by cervical dislocation for tissue collection. Complete livers were obtained, immediately snap-frozen, and stored at −80 °C until further evaluation.
Liver tissue samples from mice were used to study the mRNA expression of FXR- and PPAR-regulated genes. To homogenize the tissue samples for qRT-PCR analysis, one-third of each liver was placed on a Falcon Cell Strainer with 40-μm pore size (BD Bioscience, Erembodegem, Belgium) in a 50-mL Falcon tube. Every tissue was rinsed with PBS buffer containing 10% FCS, penicillin (100 U/mL), and streptomycin (100 μg/mL) and pressed through the cell strainer until 5 mL cell suspension had been collected. The samples were centrifuged at 1200 rpm for 10 min at 4 °C. […] Two micrograms per sample of the extracted RNA were reverse-transcribed into cDNA using the High-Capacity cDNA Reverse Transcription Kit (4368814, Thermo Fischer Scientific, Inc.) according to the manufacturer’s protocol. mRNA expression was studied by quantitative real-time PCR analysis with a StepOnePlus System (Applied Biosystems) based on the 2^−ΔCT method (Supplementary Fig. 6) or the 2^−ΔΔCT method (Fig. 6) using Power SYBR Green PCR Master Mix (Life Technologies). […]

## CC(C)(C)c1ccc(C(=O)Nc2cccc(CCC(=O)O)c2)c(NC(=O)c2ccc(-c3ccco3)cc2)c1 [compound 41, 3-(3-[4-{tert-Butyl}-2-{4-(2-furyl)}benzamido]phenyl)propanoic acid]
  adverse effects, behaviour: no adverse effects
12 h after treatment, vs. vehicle
  hepatic expression of BSEP, SHP, LPL, PCK and CRAT, 12 h: increased
After 18 h
  effect on FXR- and PPAR-regulated gene expression in livers, 18 h: significantly reduced
